Experimental data taken from patent US8993606B2, “Oral formulations for treating metal overload” (FerroKin BioSciences, Inc., priority 2011, dated 2015).

Tested on: patients with transfusional iron overload
Test: Example 11: efficacy study, R2 liver iron concentration per FerriScan MRI (text: mg/g liver dw)
Format: in vivo, human
Protocol: The goal of this experiment was to: 1. evaluate the safety and tolerability based on clinical assessments of two doses (16 and 32 mg/kg/d) of Compound 1 when administered daily for 24 weeks to patients with transfusional iron overload; 2. identify a differential response between dose groups in liver iron concentration determined by magnetic resonance imaging (MRI) after 24 weeks of dosing; and 3. assess the safety and efficacy activity of Compound 1 when administered daily for up to 96 weeks.
This experiment is an open-label, randomized study of two dose levels (16 and 32 mg/kg/d) of Compound 1 administered once daily for 24 weeks to eligible patients with transfusional iron overload requiring chelation therapy, with a dosing extension of 72 additional weeks.
Patients were assigned to one of two strate: “high” or “low” transfusion burden based on the average iron intake of the six transfusion sessions. Patients within each transfusion burden groups were randomized to one of two Compound 1 treatment arms: 16 mg/kg/d (16 mpk) or 32 mg/kg/d (32 mpk). The stratification followed by randomization to treatment arms helps to ensure an equal distribution of patients with “high” and “low” transfusion burdens to the high or low dose of Compound 1. Each treatment arm received one dose of Compound 1 daily for 24 weeks.
At the conclusion of the 24 week dosing period, patients who qualify and consent to continue treatment continued for an additional 72 weeks of Compound 1 dosing.
The inclusion of 25 patients in each treatment group provided a statistical power of 0.80 to detect, within 6 months, an LIC difference (normalized for initial LIC) of 3 mg/g dry weight between the two dose groups as determined by MRI. Baseline characteristics between dose groups were compared using Fisher extract test or Wilcoxon rank sum test as appropriate. The change in baseline to week 12, 24, and 72 values for all pharmacodynamics parameters were analyzed by an ANCOVA model with main effect for treatment group with baselines value for the corresponding parameters and transfusion burdon (iron input) during the study and baseline liver iron concentration as covariates comparing the two active treatment groups. T2* values were natural log transformed and summarized as the geometric mean (the antilog of the mean of the log data) plus or minus the co-efficient of variation (CV) defined as square root of eMSE where MSE is defined as the mean square error and subject to ANCOVA setting the p value as the threshold for statistical significance at 0.05 (confidence level of 95%).
Conducted was a multicenter, randomized, open-label study of adult subjects with documented transfusional iron overload in need of chelation therapy. Transfusional iron overload was defined as LIC by R2 (FerriScan®) magnetic resonance imaging (MRI)≧3.5 mg/g liver dw or serum ferritin>500 ng/mL. Subjects received investigational product for 24 weeks with an extension of 72 weeks for the evaluation of long-term safety and efficacy. The 24-week and 48-week pharmacodynamics results are described in this section. A total of 51 subjects enrolled and 49 completed the initial 24-week treatment period.

[1] = randomized to 16 mg/kg/d, dose adjustments after week 24
[2] = randomized to 32 mg/kg/d, dose adjustments after week 24

**Q.** What does the source list for COCCOCCOCCOc1cccc(C2=N[C@@](C)(C(=O)O)CS2)c1O [Compound 1, (S)-4,5-Dihydro-2-[2-hydroxy-3-(3,6,9-trioxadecyloxy)phenyl]-4-methyl-4-thiazolecarboxylate magnesium hydroxide]?
**A.** R2 LIC Change from Baseline to Week 12, Mean (SD) (16 mg/kg/d): 2.68 (4.050); R2 LIC Change from Baseline to Week 12, Median (16 mg/kg/d): 0.90; R2 LIC Change from Baseline to Week 24, Mean (SD) (16 mg/kg/d): 3.08 (5.552); R2 LIC Change from Baseline to Week 24, Median (16 mg/kg/d): 1.10; R2 LIC Week 12, Mean (SD) (16 mg/kg/d): 15.90 (9.446); R2 LIC Week 12, Median (16 mg/kg/d): 11.70; R2 LIC Week 24, Mean (SD) (16 mg/kg/d): 16.31 (10.570); R2 LIC Week 24, Median (16 mg/kg/d): 11.50; R2 LIC Change from Baseline to Week 12, Mean (SD) (32 mg/kg/d): −0.22 (2.827); R2 LIC Change from Baseline to Week 12, Median (32 mg/kg/d): 0.10; R2 LIC Change from Baseline to Week 24, Mean (SD) (32 mg/kg/d): −0.27 (4.950); R2 LIC Change from Baseline to Week 24, Median (32 mg/kg/d): 0.20; R2 LIC Week 12, Mean (SD) (32 mg/kg/d): 13.59 (8.684); R2 LIC Week 12, Median (32 mg/kg/d): 10.70; R2 LIC Week 24, Mean (SD) (32 mg/kg/d): 13.25 (8.510); R2 LIC Week 24, Median (32 mg/kg/d): 9.30; LIC from baseline to Weeks 12 and 24 (16 mpk): statistically significant increase; LIC from baseline at the first 24 weeks (32 mpk): remained relatively unchanged; R2 LIC Change from Baseline to Week 12, Mean (SD) (Total (both dose groups)): 1.20 (3.740); R2 LIC Change from Baseline to Week 12, Median (Total (both dose groups)): 0.70; R2 LIC Change from Baseline to Week 24, Mean (SD) (Total (both dose groups)): 1.37 (5.467); R2 LIC Change from Baseline to Week 24, Median (Total (both dose groups)): 0.50; R2 LIC Change from Baseline to Week 48, Mean (SD) (Total (both dose groups)): −0.63 (3.632); R2 LIC Change from Baseline to Week 48, Median (Total (both dose groups)): −0.20; R2 LIC Change from Baseline to Week 72, Mean (SD) (Total (both dose groups)): −0.69 (4.975); R2 LIC Change from Baseline to Week 72, Median (Total (both dose groups)): −0.80; R2 LIC Week 12, Mean (SD) (Total (both dose groups)): 14.72 (9.046); R2 LIC Week 12, Median (Total (both dose groups)): 11.10; R2 LIC Week 24, Mean (SD) (Total (both dose groups)): 14.75 (9.599); R2 LIC Week 24, Median (Total (both dose groups)): 11.00; R2 LIC Week 48, Mean (SD) (Total (both dose groups)): 11.74 (7.813); R2 LIC Week 48, Median (Total (both dose groups)): 8.80; R2 LIC Week 72, Mean (SD) (Total (both dose groups)): 11.31 (7.904); R2 LIC Week 72, Median (Total (both dose groups)): 8.70; mean change from baseline LIC (Week 48, 19 subjects randomized to 16 mg/kg/day): 0.1 mg/g; mean change from baseline LIC (Week 48, 20 subjects originally randomized to 32 mg/kg/day): -1.3 mg/g; difference in the mean change from baseline between treatment groups (at 24 weeks, p<0.03): 3.4 mg/g; dose-response in iron chelating capacity (between 16 and 32 mpk, first 24-weeks): clear dose-response; LIC from Week 24 (doses of 32 mpk and greater): reduction in LIC; subjects with lower LIC at 24 weeks compared to Baseline (high dose group (32 mg/kg/day)): 11 of 25; mean change in LIC (high dose group (32 mg/kg/day), 24 weeks): −0.3 mg/g liver (dw); subjects with lower LIC at 24 weeks compared with Baseline (low dose group (16 mg/kg/day)): 7 of 24; mean change in LIC (net gain) (low dose group (16 mg/kg/day), 24 weeks): 3.1 mg/g liver (dw); R2 LIC Change from Baseline to Week 48, Mean (SD) [1]: 0.09 (4.015); R2 LIC Change from Baseline to Week 48, Median [1]: 0.00; R2 LIC Change from Baseline to Week 72, Mean (SD) [1]: 0.52 (3.654); R2 LIC Change from Baseline to Week 72, Median [1]: 0.50; R2 LIC Week 48, Mean (SD) [1]: 11.68 (6.369); R2 LIC Week 48, Median [1]: 9.30; R2 LIC Week 72, Mean (SD) [1]: 10.74 (6.373); R2 LIC Week 72, Median [1]: 9.40; R2 LIC Change from Baseline to Week 48, Mean (SD) [2]: −1.32 (3.177); R2 LIC Change from Baseline to Week 48, Median [2]: −0.90; R2 LIC Change from Baseline to Week 72, Mean (SD) [2]: −1.83 (5.853); R2 LIC Change from Baseline to Week 72, Median [2]: −1.80; R2 LIC Week 48, Mean (SD) [2]: 11.81 (9.145); R2 LIC Week 48, Median [2]: 7.70; R2 LIC Week 72, Mean (SD) [2]: 11.84 (9.307); R2 LIC Week 72, Median [2]: 8.70
